In paper PMC7674646, “Structural and Functional Analyses of the Transcription Repressor DgoR From Escherichia coli Reveal a Divalent Metal-Containing D-Galactonate Binding Pocket” (Frontiers in Microbiology, 2020):
Several values for one entry are separate records, joined by “and”; a condition that tells them apart may be missing. Equal entries are not always repeated.

Columns and labels:
WT-EcoDgoR = WT-EcoDgoR (Escherichia coli, UniProt P31460); experiment: MST binding assay, D-galactonate to wild-type EcoDgoR
Method: (§1) His-tagged DgoR and its derivatives were labeled with the NT-647-NHS dye using the Monolith NT^TM Protein Labeling Kit RED-NHS (NanoTemper Technologies) ([Magnez et al., 2017]; [Welsch et al., 2017]). Serially diluted unlabeled proteins and 100 nM of labeled DgoR or its derivatives were incubated for 15 min at room temperature in binding buffer (1.8 mM KH2PO4, 10 mM Na2HPO4, 137 mM NaCl, 2.7 mM KCl, and 0.05% Tween-20, pH 7.8) in a final volume of 20 μL. Subsequently, samples were loaded into NT.115 premium coated capillaries (NanoTemper Technologies). Binding experiments were performed using a Monolith NT.115 Pico apparatus (NanoTemper Technologies) with the following parameters: LED power 5 %, MST Power high. MST traces were analyzed between 4.00 and 5.00 s after turning on the IR-Laser. Measurements were carried out with D-galactonate. For each experiment, the unlabeled proteins were produced from independent preparations. Results were obtained with the MO Control software version 1.6. MO Affinity Analysis software version 2.3 was used to determine the fraction of the formed complex. Apparent dissociation constants (Kd) were calculated using nonlinear fitting assuming one specific binding site with the GraphPad Prism 7 software with the following formula
(§2) (whereBisMaxthemaximumtheoreticalspecificbinding,hereB=Max1).

EcoDgoR W181A = EcoDgoR W181A (Escherichia coli, UniProt P31460, W181A); experiment: MST binding assay, EcoDgoR W181A mutant
Method: as §1, §2

EcoDgoR R224A = EcoDgoR R224A (Escherichia coli, UniProt P31460, R224A); experiment: MST binding assay, EcoDgoR R224A mutant
Method: as §1, §2

EcoDgoR H150A = EcoDgoR H150A (Escherichia coli, UniProt P31460, H150A); experiment: MST binding assay, EcoDgoR H150A mutant
Method: as §1, §2

EcoDgoR T191A = EcoDgoR T191A (Escherichia coli, UniProt P31460, T191A); experiment: MST binding assay, EcoDgoR T191A mutant
Method: as §1, §2

EcoDgoR R102A = EcoDgoR R102A (Escherichia coli, UniProt P31460, R102A); experiment: MST binding assay, EcoDgoR R102A mutant
Method: as §1, §2

[1] = molecular target: EcoDgoR / dgo cis-acting element (Escherichia coli, UniProt P31460); experiment: EMSA of WT EcoDgoR with dgo cis-acting element; assay type: biochemical; details: for effect on stability of EcoDgoR/DNA complex (EMSA): EDTA-treated EcoDgoR, 0.5 mM sugar plus divalent metal cation (Zn2+, Ca2+ or Mg2+); for effect on EcoDgoR/DNA complex (EMSA): EcoDgoR pre-incubated with 5 mM EDTA, sugar alone (0.5 mM), no metal added; for effect on DNA bound by EcoDgoR (EMSA): WT EcoDgoR, 0.5 mM sugar
Description: (§3) For expression of the recombinant DgoR mutants (i.e., R102A, D146A, H150A, Q173A, R179A, W181A, D184A, T191A, H195A, S221A, R224A, and R224E), the wild-type E. coli dgoR gene on the expression plasmid pET28a was mutated using the site-directed mutagenesis method. The dgo cis-acting element region of E. coli K12 was generated by PCR and subsequently inserted into the HincII site of pUC18. The obtained plasmid was used as the template for preparation of the Cy5-labeled probes using the universal primer pair of Cy5-labeled dgoRcis-acting_F and dgoRcis-acting_R. Cy5-labeled probe (100 ng) was incubated with different amounts of dgoR or its mutants at 25°C for 20 min in a buffer comprising of 25 mM Tris-HCl (pH 8.0), 50 mM KCl, 2.5 mM MgCl2, 5% glycerol, 1 mM dithiothreitol (DTT), and 100 μg/mL sonicated salmon sperm DNA (Sangon) (total volume 20 μl). The resulting DNA-protein complexes were subjected to electrophoresis on native PAGE gels at 100 V, 4°C for 2.5 h in a running buffer containing 25 mM Tris-HCl (pH 7.8) and 250 mM glycine. After electrophoresis, gels were directly scanned for fluorescent DNAs using an ImageQuantTM LAS 4000 system (GE Healthcare). For EMSAs in the presence or absence of D-galactonate or D-glucose, 0.5 mM D-galactonate or D-glucose was applied.

[2] = molecular target: EcoDgoR R179A / dgo cis-acting element (Escherichia coli, UniProt P31460, R179A); experiment: EMSA of EcoDgoR R179A with dgo cis-acting element; assay type: biochemical; details: presence vs absence of 0.5 mM D-galactonate
Description: as §3

[3] = molecular target: EcoDgoR W181A / dgo cis-acting element (Escherichia coli, UniProt P31460, W181A); experiment: EMSA of EcoDgoR W181A with dgo cis-acting element; assay type: biochemical; details: presence vs absence of 0.5 mM D-galactonate
Description: as §3

[4] = molecular target: EcoDgoR Q173A / dgo cis-acting element (Escherichia coli, UniProt P31460, Q173A); experiment: EMSA of EcoDgoR Q173A with dgo cis-acting element; assay type: biochemical; details: Q173A 8 μM, 0.5 mM D-galactonate
Description: as §3

[5] = molecular target: EcoDgoR R102A / dgo cis-acting element (Escherichia coli, UniProt P31460, R102A); experiment: EMSA of EcoDgoR R102A with dgo cis-acting element; assay type: biochemical; details: R102A 8 μM, 0.5 mM D-galactonate
Description: as §3

[6] = molecular target: EcoDgoR D184A / dgo cis-acting element (Escherichia coli, UniProt P31460, D184A); experiment: EMSA of EcoDgoR D184A with dgo cis-acting element; assay type: biochemical; details: D184A 8 μM, 0.5 mM D-galactonate
Description: as §3

[7] = molecular target: EcoDgoR T191A / dgo cis-acting element (Escherichia coli, UniProt P31460, T191A); experiment: EMSA of EcoDgoR T191A with dgo cis-acting element; assay type: biochemical; details: T191A 8 μM, 0.5 mM D-galactonate
Description: as §3

[8] = molecular target: EcoDgoR H150A / dgo cis-acting element (Escherichia coli, UniProt P31460, H150A); experiment: EMSA of EcoDgoR H150A with dgo cis-acting element; assay type: biochemical; details: 0.5 mM D-galactonate
Description: as §3

[9] = molecular target: EcoDgoR H195A / dgo cis-acting element (Escherichia coli, UniProt P31460, H195A); experiment: EMSA of EcoDgoR H195A with dgo cis-acting element; assay type: biochemical; details: 0.5 mM D-galactonate
Description: as §3

[10] = molecular target: EcoDgoR R224A / dgo cis-acting element (Escherichia coli, UniProt P31460, R224A); experiment: EMSA of EcoDgoR R224A with dgo cis-acting element; assay type: biochemical; details: 0.5 mM D-galactonate
Description: as §3

[11] = molecular target: EcoDgoR R224E / dgo cis-acting element (Escherichia coli, UniProt P31460, R224E); experiment: EMSA of EcoDgoR R224E with dgo cis-acting element; assay type: biochemical; details: 0.5 mM D-galactonate
Description: as §3

[12] = molecular target: EcoDgoR D146A / dgo cis-acting element (Escherichia coli, UniProt P31460, D146A); experiment: EMSA of EcoDgoR D146A with dgo cis-acting element; assay type: biochemical; details: supplementation of D-galactonate
Description: as §3

[13] = molecular target: EcoDgoR S221A / dgo cis-acting element (Escherichia coli, UniProt P31460, S221A); experiment: EMSA of EcoDgoR S221A with dgo cis-acting element; assay type: biochemical; details: supplementation of D-galactonate
Description: as §3

WT-EcoDgoR, sequence (P31460 whole entry): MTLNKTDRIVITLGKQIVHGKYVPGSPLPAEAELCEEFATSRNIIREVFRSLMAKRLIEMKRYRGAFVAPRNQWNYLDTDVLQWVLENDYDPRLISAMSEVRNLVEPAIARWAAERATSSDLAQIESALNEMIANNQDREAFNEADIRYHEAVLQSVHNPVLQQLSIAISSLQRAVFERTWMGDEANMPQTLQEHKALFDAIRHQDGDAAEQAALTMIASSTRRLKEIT
EcoDgoR / dgo cis-acting element, sequence (P31460 whole entry): as above
EcoDgoR R224A, sequence (P31460 whole entry R224A): as the sequence (P31460 whole entry) above, with R224A counted along it
EcoDgoR T191A, sequence (P31460 whole entry T191A): as the sequence (P31460 whole entry) above, with T191A counted along it
EcoDgoR W181A, sequence (P31460 whole entry W181A): as the sequence (P31460 whole entry) above, with W181A counted along it
EcoDgoR R102A, sequence (P31460 whole entry R102A): as the sequence (P31460 whole entry) above, with R102A counted along it
EcoDgoR R224A / dgo cis-acting element, sequence (P31460 whole entry R224A): as the sequence (P31460 whole entry) above, with R224A counted along it
EcoDgoR T191A / dgo cis-acting element, sequence (P31460 whole entry T191A): as the sequence (P31460 whole entry) above, with T191A counted along it
EcoDgoR D184A / dgo cis-acting element, sequence (P31460 whole entry D184A): as the sequence (P31460 whole entry) above, with D184A counted along it
EcoDgoR H195A / dgo cis-acting element, sequence (P31460 whole entry H195A): as the sequence (P31460 whole entry) above, with H195A counted along it
EcoDgoR S221A / dgo cis-acting element, sequence (P31460 whole entry S221A): as the sequence (P31460 whole entry) above, with S221A counted along it
EcoDgoR H150A / dgo cis-acting element, sequence (P31460 whole entry H150A): as the sequence (P31460 whole entry) above, with H150A counted along it
EcoDgoR H150A, sequence (P31460 whole entry H150A): as the sequence (P31460 whole entry) above, with H150A counted along it
EcoDgoR W181A / dgo cis-acting element, sequence (P31460 whole entry W181A): as the sequence (P31460 whole entry) above, with W181A counted along it
EcoDgoR R102A / dgo cis-acting element, sequence (P31460 whole entry R102A): as the sequence (P31460 whole entry) above, with R102A counted along it
EcoDgoR R224E / dgo cis-acting element, sequence (P31460 whole entry R224E): as the sequence (P31460 whole entry) above, with R224E counted along it
EcoDgoR D146A / dgo cis-acting element, sequence (P31460 whole entry D146A): as the sequence (P31460 whole entry) above, with D146A counted along it
EcoDgoR Q173A / dgo cis-acting element, sequence (P31460 whole entry Q173A): as the sequence (P31460 whole entry) above, with Q173A counted along it
EcoDgoR R179A / dgo cis-acting element, sequence (P31460 whole entry R179A): as the sequence (P31460 whole entry) above, with R179A counted along it

With `O=C(O)[C@H](O)[C@@H](O)[C@@H](O)[C@H](O)CO` [D-galactonate] the Kd (WT-EcoDgoR; WT EcoDgoR 100 nM, D-galactonate 305 nM to 10 mM) was ~0.22 mM and 0.22 mM, the Kd (WT-EcoDgoR; WT EcoDgoR after EDTA incubation) was 30 ± 20.3 mM and the Kd (EcoDgoR W181A) was > 50 mM. The “interaction with D-galactonate (MST)” value (EcoDgoR W181A; W181A mutant) was “did not interact”, the Kd (EcoDgoR R224A) was > 50 mM and the “interaction with D-galactonate (MST)” value (EcoDgoR R224A; R224A mutant) was “did not interact”. For the same compound, the Kd (EcoDgoR H150A) was 4.99 ± 1.02 mM, the Kd (EcoDgoR T191A) was > 50 mM and the “interaction with D-galactonate (MST)” value (EcoDgoR T191A; T191A mutant) was “did not interact”. The Kd (EcoDgoR R102A) was > 50 mM, the “interaction with D-galactonate (MST)” value (EcoDgoR R102A; R102A mutant) was “did not interact” and the “effect on stability of EcoDgoR/DNA complex (EMSA)” value [1] was “decreased the stability of EcoDgoR/DNA complex”. The “effect on EcoDgoR/DNA complex (EMSA)” value [1] was “didn’t disrupt the formation of stable protein/DNA complexes”, the “effect on DNA bound by EcoDgoR (EMSA)” value [1] was “relieved DNA bound by EcoDgoR in a concentration-dependent manner” and the “effect on DNA binding of mutant (EMSA)” value [2] was “no significant difference in DNA binding affinity”. For the same compound, the “effect on DNA binding of mutant (EMSA)” value [3] was “no significant difference in DNA binding affinity”, the “effect on DNA binding of mutant (EMSA)” value [4] was “restored their DNA binding ability to some extent” and the “effect on DNA binding of mutant (EMSA)” value [5] was “restored their DNA binding ability to some extent”. For the same compound, the “effect on DNA binding of mutant (EMSA)” value [6] was “restored their DNA binding ability to some extent”, the “effect on DNA binding of mutant (EMSA)” value [7] was “restored their DNA binding ability to some extent” and the “effect on DNA binding of mutant (EMSA)” value [8] was “remain inability to bind DNA”. The “effect on DNA binding of mutant (EMSA)” value [9] was “remain inability to bind DNA”, the “effect on DNA binding of mutant (EMSA)” value [10] was “remain inability to bind DNA” and the “effect on DNA binding of mutant (EMSA)” value [11] was “remain inability to bind DNA”. The “effect on DNA binding of mutant (EMSA)” value [12] was “slightly decreased their ability to bind DNA” and the “effect on DNA binding of mutant (EMSA)” value [13] was “slightly decreased their ability to bind DNA”.

For `OC[C@H]1OC(O)[C@H](O)[C@@H](O)[C@@H]1O` (stereo partly drawn) [D-glucose], the “effect on stability of EcoDgoR/DNA complex (EMSA)” value [1] was “not affected significantly”, the “effect on EcoDgoR/DNA complex (EMSA)” value [1] was “didn’t disrupt the formation of stable protein/DNA complexes” and the “effect on DNA bound by EcoDgoR (EMSA)” value [1] was “did not display such effect”.
